From patent US20150024001A1, “MOLECULAR MIMIC MUCOSAL AIDS VACCINE” (priority 2011, published 2015)

How the values were obtained:
UAE-1 = conditions: cited from earlier work
gp140 = conditions: subcutaneous booster in monkeys first immunized with Hub-TGDK-UPA-CpGODN-gp140-Fetuin, after anti-gp140 titer had decreased (about one year and a half)
Text: The resulting modified gene of SIVmac239 Env was transferred into simian Vero cells and a monomer and a trimer of SIVmac239 Env gp140 were constructed.

| Compound | mode of inhibition of UAE-1 (UAE-1) | production of anti-gp140 antibodies after booster (gp140) |
| --- | --- | --- |
| NCCNC(=O)[C@H](CCCCNC(=O)[C@H](CCCCNC(=O)c1cc(O)c(O)c(O)c1)NC(=O)c1cc(O)c(O)c(O)c1)NC(=O)[C@H](CCCCNC(=O)c1cc(O)c(O)c(O)c1)NC(=O)c1cc(O)c(O)c(O)c1 [TGDK, N^2,N^6-bis[N^2,N^6-bis(3,4,5-trihydroxybenzoyl)-L-lysyl]-N-(2-aminoethyl)-L-lysine amide] | competitive inhibitor | – |
| Fetuin | – | production of anti-gp140 antibodies was confirmed |
